IC50 data for 34 compounds are collected here from patent publication US9023847B2, “Azaheterocyclic compounds” (Merck Patent GmbH, priority 2009, dated 2015).

The term IC50 denotes the concentration at which inhibition is half-maximal.

In one test the target is T1, P70S6K (T412E mutant, Millipore) (Homo sapiens, UniProt P23443, T412E).
T1 construct: purchased Millipore
T1 sequence (P23443 whole entry T412E): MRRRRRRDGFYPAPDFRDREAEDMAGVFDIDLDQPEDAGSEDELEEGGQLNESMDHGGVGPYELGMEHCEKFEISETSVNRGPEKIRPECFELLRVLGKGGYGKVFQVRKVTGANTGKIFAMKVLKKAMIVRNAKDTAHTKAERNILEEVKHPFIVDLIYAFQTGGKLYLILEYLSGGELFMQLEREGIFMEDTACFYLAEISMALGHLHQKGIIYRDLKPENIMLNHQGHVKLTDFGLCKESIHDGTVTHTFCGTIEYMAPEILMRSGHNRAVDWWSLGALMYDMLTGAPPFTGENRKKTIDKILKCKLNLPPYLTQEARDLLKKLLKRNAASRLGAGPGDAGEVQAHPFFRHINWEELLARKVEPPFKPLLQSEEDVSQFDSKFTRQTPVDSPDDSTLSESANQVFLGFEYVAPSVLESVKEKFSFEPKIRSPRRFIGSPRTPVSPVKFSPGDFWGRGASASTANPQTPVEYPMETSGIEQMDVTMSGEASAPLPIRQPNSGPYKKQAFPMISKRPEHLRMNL
Description: p70S6K enzyme assay. The class given is biochemical. Particulars: Table 1; 3 nM P70S6K, 24 μM ATP, 90 min at 25° C.; read-out: p70S6K inhibition (IC50). The procedure, abridged:
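T412E-mutant P70S6K (3 nM) with 24 μM ATP and 1 μM FITC-AHA-AKRRRLSSLRA-OH S6-derived peptide in 100 mM Hepes pH 7.5, 5 mM MgCl2, 1 mM DTT, 0.015% Brij; 90 min at 25° C, EDTA stop. Phosphorylated product and substrate peptide separated and quantified by microfluidic capillary electrophoresis (Caliper LabChip 3000).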
Consider `CC(C)(C)OC(=O)N1CCCC(NC(=O)c2sccc2Nc2ncnc3[nH]ccc23)C1` (stereo not shown) [Example 154, 3-{[3-(7H-Pyrrolo[2,3-d]pyrimidin-4-ylamino)-thiophene-2-carbonyl]-amino}-piperidine-1-carboxylic acid tert-butyl ester], for which the IC50 lay in the range of 100 to 1000 nM.

As for `CC(C)NC(=O)c1ccccc1Nc1ccnc2[nH]ccc12` [Example 155, N-Isopropyl-2-(1H-pyrrolo[2,3-b]pyridin-4-ylamino)-benzamide], the IC50 lay in the range of 100 to 1000 nM.

As for `CC(C)(C)OC(=O)N1CCC(NC(=O)c2sccc2Nc2ccnc3[nH]ccc23)C1` (stereo not shown) [Example 156, 3-{[3-(1H-Pyrrolo[2,3-b]pyridin-4-ylamino)-thiophene-2-carbonyl]-amino}-pyrrolidine-1-carboxylic acid tert-butyl ester], the IC50 lay within 1000 to 10000 nM.

Regarding `CC(C)(C)OC(=O)N(CCNC(=O)c1occc1Nc1ncnc2[nH]ccc12)Cc1ccccc1` [Example 157, Benzyl-(2-{[3-(7H-pyrrolo[2,3-d]pyrimidin-4-ylamino)-furan-2-carbonyl]-amino}-ethyl)-carbamic acid tert-butyl ester], the IC50 is 1000 to 10000 nM.

Staying with this test, now noted: class symbol; 3 nM P70S6K, 24 μM ATP; read-out: IC50 (p70S6K).
Consider `COc1ccccc1C(CN(C)C)NC(=O)c1sccc1Nc1ccnc2[nH]ccc12` (stereo not shown) [Example 158, 3-(1H-Pyrrolo[2,3-b]pyridin-4-ylamino)-thiophene-2-carboxylic acid [2-dimethylamino-1-(2-methoxy-phenyl)-ethyl]-amide], for which the IC50 was in the range of 100 to 1000 nM.

For `CN(C)CC(NC(=O)c1sccc1Nc1ccnc2[nH]ccc12)c1cccc(Cl)c1` (stereo not shown) [Example 159, 3-(1H-Pyrrolo[2,3-b]pyridin-4-ylamino)-thiophene-2-carboxylic acid [1-(3-chloro-phenyl)-2-dimethylamino-ethyl]-amide], the IC50 was below 100 nM.

`COc1cccc(C(CN(C)C)NC(=O)c2sccc2Nc2ccnc3[nH]ccc23)c1` (stereo not shown) [Example 160, 3-(1H-Pyrrolo[2,3-b]pyridin-4-ylamino)-thiophene-2-carboxylic acid [2-dimethylamino-1-(3-methoxy-phenyl)-ethyl]-amide]: the IC50 is below 100 nM.

Consider `O=C(Nc1cccc(CNC(=O)c2sccc2Nc2ccnc3[nH]ccc23)c1)c1ccnc(N2CCCC2)c1` [Example 161, 2-Pyrrolidin-1-yl-N-[3-({[3-(1H-pyrrolo[2,3-b]pyridin-4-ylamino)-thiophene-2-carbonyl]-amino}-methyl)-phenyl]-isonicotinamide], for which the IC50 is below 100 nM.

For the compound `CN(C)c1cc(C(=O)Nc2cccc(CNC(=O)c3sccc3Nc3ccnc4[nH]ccc34)c2)ccn1` [Example 162, 2-Dimethylamino-N-[3-({[3-(1H-pyrrolo[2,3-b]pyridin-4-ylamino)-thiophene-2-carbonyl]-amino}-methyl)-phenyl]-isonicotinamide], the IC50 is below 100 nM.

On to `CN1CCN(c2cc(C(=O)Nc3cccc(CNC(=O)c4sccc4Nc4ccnc5[nH]ccc45)c3)ccn2)CC1` [Example 163, 2-(4-Methyl-piperazin-1-yl)-N-[3-({[3-(1H-pyrrolo[2,3-b]pyridin-4-ylamino)-thiophene-2-carbonyl]-amino}-methyl)-phenyl]-isonicotinamide], for which the IC50 is below 100 nM.

`O=C(Nc1cccc(CNC(=O)c2sccc2Nc2ccnc3[nH]ccc23)c1)c1ccnc(N2CCOCC2)c1` [Example 164, 2-Morpholin-4-yl-N-[3-({[3-(1H-pyrrolo[2,3-b]pyridin-4-ylamino)-thiophene-2-carbonyl]-amino}-methyl)-phenyl]-isonicotinamide]: the IC50 was below 100 nM.

On to `CCNc1cc(C(=O)Nc2cccc(CNC(=O)c3sccc3Nc3ccnc4[nH]ccc34)c2)ccn1` [Example 165, 2-Ethylamino-N-[3-({[3-(1H-pyrrolo[2,3-b]pyridin-4-ylamino)-thiophene-2-carbonyl]-amino}-methyl)-phenyl]-isonicotinamide], for which the IC50 was below 100 nM.

Turning to `CN(C)CC(NC(=O)c1sccc1Nc1ccnc2[nH]ccc12)c1ccc(F)cc1` (stereo not shown) [Example 166, 3-(1H-Pyrrolo[2,3-b]pyridin-4-ylamino)-thiophene-2-carboxylic acid [2-dimethylamino-1-(4-fluoro-phenyl)-ethyl]-amide], the IC50 was below 100 nM.

As to `CNCC(NC(=O)c1sccc1Nc1ccnc2[nH]ccc12)c1cccc(F)c1` (stereo not shown) [Example 167, 3-(1H-Pyrrolo[2,3-b]pyridin-4-ylamino)-thiophene-2-carboxylic acid [1-(3-fluoro-phenyl)-2-methylamino-ethyl]-amide], the IC50 is below 100 nM.

With `CNCC(NC(=O)c1sccc1Nc1ccnc2[nH]ccc12)c1cccc(Cl)c1` (stereo not shown) [Example 168, 3-(1H-Pyrrolo[2,3-b]pyridin-4-ylamino)-thiophene-2-carboxylic acid [1-(3-chloro-phenyl)-2-methylamino-ethyl]-amide], the IC50 was below 100 nM.

With `CNCC(NC(=O)c1sccc1Nc1ccnc2[nH]ccc12)c1ccccc1` (stereo not shown) [Example 169, 3-(1H-Pyrrolo[2,3-b]pyridin-4-ylamino)-thiophene-2-carboxylic acid (2-methylamino-1-phenyl-ethyl)-amide], the IC50 is below 100 nM.

`NC[C@@H](NC(=O)c1sccc1Nc1ccnc2[nH]ccc12)c1ccccc1` [Example 170, 3-(1H-Pyrrolo[2,3-b]pyridin-4-ylamino)-thiophene-2-carboxylic acid ((S)-2-amino-1-phenyl-ethyl)-amide]: the IC50 was below 100 nM.

With `NC[C@@H](NC(=O)c1sccc1Nc1ccnc2[nH]ccc12)c1cccc(F)c1` [Example 171, 3-(1H-Pyrrolo[2,3-b]pyridin-4-ylamino)-thiophene-2-carboxylic acid [(S)-2-amino-1-(3-fluoro-phenyl)-ethyl]-amide], the IC50 was below 100 nM.

On to `O=C(NCc1ccccc1)c1sccc1Nc1ncnc2[nH]ccc12` [Example 172, 3-(7H-Pyrrolo[2,3-d]pyrimidin-4-ylamino)-thiophene-2-carboxylic acid benzylamide], for which the IC50 was below 100 nM.

As for `O=C(NCc1cccc(Cl)c1)c1sccc1Nc1ncnc2[nH]ccc12` [Example 173, 3-(7H-Pyrrolo[2,3-d]pyrimidin-4-ylamino)-thiophene-2-carboxylic acid 3-chloro-benzylamide], the IC50 is below 100 nM.

As for `O=C(NCCc1ccccc1)c1sccc1Nc1ncnc2[nH]ccc12` [Example 174, 3-(7H-Pyrrolo[2,3-d]pyrimidin-4-ylamino)-thiophene-2-carboxylic acid phenethylamide], the IC50 was below 100 nM.

As to `O=C(NCCc1cccc(F)c1)c1sccc1Nc1ncnc2[nH]ccc12` [Example 175, 3-(7H-Pyrrolo[2,3-d]pyrimidin-4-ylamino)-thiophene-2-carboxylic acid [2-(3-fluorophenyl)-ethyl]-amide], the IC50 was below 100 nM.

For `O=C(NCc1cccc(Cl)c1)c1occc1Nc1ncnc2[nH]ccc12` [Example 176, 3-(7H-Pyrrolo[2,3-d]pyrimidin-4-ylamino)-furan-2-carboxylic acid 3-chloro-benzylamide], the IC50 was below 100 nM.

For `CC(C)(C)OC(=O)N(CCNC(=O)c1occc1Nc1ncnc2[nH]ccc12)Cc1ccccc1` [Example 177], the IC50 lay in the range of 1000 to 10000 nM.

For the compound `Cc1cc(Nc2ncnc3[nH]ccc23)c(C(=O)NCc2cccc(Cl)c2)s1` [Example 178, 5-Methyl-3-(7H-pyrrolo[2,3-d]pyrimidin-4-ylamino)-thiophene-2-carboxylic acid 3-chloro-benzylamide], the IC50 lay within 100 to 1000 nM.

For `O=C(NCCc1ccc(F)cc1)c1sccc1Nc1ncnc2[nH]ccc12` [Example 179, 3-(7H-Pyrrolo[2,3-d]pyrimidin-4-ylamino)-thiophene-2-carboxylic acid [2-(4-fluoro-phenyl)-ethyl]-amide], the IC50 is below 100 nM.

For the compound `O=C(NCCc1ccc(Br)cc1)c1sccc1Nc1ncnc2[nH]ccc12` [Example 180, 3-(7H-Pyrrolo[2,3-d]pyrimidin-4-ylamino)-thiophene-2-carboxylic acid [2-(4-bromo-phenyl)-ethyl]-amide], the IC50 is below 100 nM.

As to `Cc1ccccc1CCNC(=O)c1sccc1Nc1ncnc2[nH]ccc12` [Example 181, 3-(7H-Pyrrolo[2,3-d]pyrimidin-4-ylamino)-thiophene-2-carboxylic acid (2-o-tolyl-ethyl)-amide], the half-inhibitory concentration (IC50) was below 100 nM.

For `O=C(NCCc1cccc(Cl)c1)c1sccc1Nc1ncnc2[nH]ccc12` [Example 182, 3-(7H-Pyrrolo[2,3-d]pyrimidin-4-ylamino)-thiophene-2-carboxylic acid [2-(3-chloro-phenyl)-ethyl]-amide], the IC50 is below 100 nM.

Regarding `O=C(NCCNCc1ccccc1)c1sccc1Nc1ncnc2[nH]ccc12` [Example 183, 3-(7H-Pyrrolo[2,3-d]pyrimidin-4-ylamino)-thiophene-2-carboxylic acid (2-benzylamino-ethyl)-amide], the IC50 is below 100 nM.

Turning to `CC(C)(C)OC(=O)N1CCCC(NC(=O)c2sccc2Nc2ncnc3[nH]ccc23)C1` (stereo not shown) [Example 184, 3-{[3-(7H-Pyrrolo[2,3-d]pyrimidin-4-ylamino)-thiophene-2-carbonyl]-amino}-piperidine-1-carboxylic acid tert-butyl ester], the IC50 was in the range of 100 to 1000 nM.

On to `CNCCNC(=O)c1sccc1Nc1ncnc2[nH]ccc12` [Example 185, 3-(7H-Pyrrolo[2,3-d]pyrimidin-4-ylamino)-thiophene-2-carboxylic acid (2-methylamino-ethyl)-amide], for which the IC50 was in the range of 100 to 1000 nM.

In the case of `O=C(NC1CCCNC1)c1sccc1Nc1ncnc2[nH]ccc12` (stereo not shown) [Example 186, 3-(7H-Pyrrolo[2,3-d]pyrimidin-4-ylamino)-thiophene-2-carboxylic acid piperidin-3-ylamide], the IC50 was below 100 nM.

Regarding `Cc1c[nH]c2ncnc(Nc3ccsc3C(=O)NCc3cccc(Cl)c3)c12` [Example 187, 3-(5-Methyl-7H-pyrrolo[2,3-d]pyrimidin-4-ylamino)-thiophene-2-carboxylic acid 3-chloro-benzylamide], the IC50 was below 100 nM.
